The source made the active and inactive calls.
Tests used:
[1] = target: Heat shock protein HSP 90-alpha (Homo sapiens, UniProt P07900); format: functional, organism-based
[2] = Trypanosoma cruzi growth suppression in host cells – NIH3T3 host cells, beta-gal luminescence, confirmation (AID 2044); format: functional, cell-based;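 note: intracellular parasites grown in NIH/3T3 mouse fibroblasts as host cells; luminescent beta-galactosidase reporter signal from transgenic T. cruzi replicating inside host cells; inhibitors lower the luminescence signal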
[3] = NIH3T3 cell viability loss – ATP luminescence, mouse fibroblasts, counter-screen, dose response (AID 2010); format: functional, cell-based;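 note: cells exposed to compound for about 90 hours before reading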
[4] = target: Induced myeloid leukemia cell differentiation protein Mcl-1 (Homo sapiens, UniProt Q07820); format: functional
Sequence of Induced myeloid leukemia cell differentiation protein Mcl-1 (Q07820 whole entry): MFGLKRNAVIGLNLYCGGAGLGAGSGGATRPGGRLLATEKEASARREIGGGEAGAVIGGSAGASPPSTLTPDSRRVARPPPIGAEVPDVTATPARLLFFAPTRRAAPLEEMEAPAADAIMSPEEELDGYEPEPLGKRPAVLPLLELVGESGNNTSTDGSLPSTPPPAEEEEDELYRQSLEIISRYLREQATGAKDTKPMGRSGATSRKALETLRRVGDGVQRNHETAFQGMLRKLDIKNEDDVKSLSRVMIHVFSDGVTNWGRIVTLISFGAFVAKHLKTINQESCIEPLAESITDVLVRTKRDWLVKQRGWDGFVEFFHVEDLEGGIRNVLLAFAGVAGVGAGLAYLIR

[5] = target: Mitogen-activated protein kinase 10 (Homo sapiens, UniProt P53779); assay: Dose response biochemical screening assay for inhibitors of c-Jun N-Terminal Kinase 3 (JNK3). [Related pubchem assays: 746 ]
Sequence of Mitogen-activated protein kinase 10 (P53779 whole entry): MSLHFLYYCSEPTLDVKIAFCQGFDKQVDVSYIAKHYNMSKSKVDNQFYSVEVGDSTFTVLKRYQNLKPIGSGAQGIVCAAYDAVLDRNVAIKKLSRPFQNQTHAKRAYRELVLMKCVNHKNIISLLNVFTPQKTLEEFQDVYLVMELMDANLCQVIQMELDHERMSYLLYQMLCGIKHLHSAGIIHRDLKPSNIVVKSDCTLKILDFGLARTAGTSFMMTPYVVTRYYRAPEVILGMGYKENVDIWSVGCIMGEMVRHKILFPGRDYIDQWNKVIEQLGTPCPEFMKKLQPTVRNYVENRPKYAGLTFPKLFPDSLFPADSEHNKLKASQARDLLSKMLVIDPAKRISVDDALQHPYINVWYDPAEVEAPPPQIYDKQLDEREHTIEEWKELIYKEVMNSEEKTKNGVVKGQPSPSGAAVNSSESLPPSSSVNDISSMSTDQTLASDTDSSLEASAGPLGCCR

[6] = M. tuberculosis H37Rv growth inhibitors, H37Rv strain (AID 1626); format: functional
[7] = target: T1, DNA repair protein RAD52 homolog (Homo sapiens, UniProt P43351); format: functional, biochemical
T1 sequence (P43351 whole entry): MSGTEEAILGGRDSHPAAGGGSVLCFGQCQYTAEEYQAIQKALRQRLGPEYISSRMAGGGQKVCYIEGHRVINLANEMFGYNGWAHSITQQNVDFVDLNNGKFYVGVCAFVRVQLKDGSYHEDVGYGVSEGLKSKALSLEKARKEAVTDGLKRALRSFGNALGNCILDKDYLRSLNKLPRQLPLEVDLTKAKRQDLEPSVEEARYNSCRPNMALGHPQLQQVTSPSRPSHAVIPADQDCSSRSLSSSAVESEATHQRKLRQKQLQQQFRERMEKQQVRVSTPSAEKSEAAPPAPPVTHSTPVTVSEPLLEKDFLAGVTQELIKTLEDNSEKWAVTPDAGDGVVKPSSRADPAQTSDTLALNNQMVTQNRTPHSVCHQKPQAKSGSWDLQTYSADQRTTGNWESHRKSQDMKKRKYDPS

[8] = viability loss in human Jurkat cells – cell-based, luminescence, cytotoxicity control for P. falciparum gametocyte viability project, dose response (AID 1117277); format: functional;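 note: potency reflects loss of cellular ATP meaning fewer viable cells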
[9] = viability inhibitors of stage V gametocytes – luminescence, dose response (AID 1117278); format: functional, cell-based;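 note: gametocytes exposed to compound for 24 hours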
[10] = target: Melanin-concentrating hormone receptor 1 (Homo sapiens, UniProt Q99705); assay: Late-stage fluorescence-based counterscreen for antagonists of the G-protein coupled receptor 7 (GPR7): cell-based dose response assay to identify antagonists of the melanin-concentrating hormone receptor 1 (MCHR1). [Related pubchem assays (depositor defined):AID1861, AID1880, AID1952, AID2148, AID2251, AID2257, AID485339]; format: functional;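 note: stimulated with 30 nM MCH peptide agonist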
Sequence of Melanin-concentrating hormone receptor 1 (Q99705 whole entry): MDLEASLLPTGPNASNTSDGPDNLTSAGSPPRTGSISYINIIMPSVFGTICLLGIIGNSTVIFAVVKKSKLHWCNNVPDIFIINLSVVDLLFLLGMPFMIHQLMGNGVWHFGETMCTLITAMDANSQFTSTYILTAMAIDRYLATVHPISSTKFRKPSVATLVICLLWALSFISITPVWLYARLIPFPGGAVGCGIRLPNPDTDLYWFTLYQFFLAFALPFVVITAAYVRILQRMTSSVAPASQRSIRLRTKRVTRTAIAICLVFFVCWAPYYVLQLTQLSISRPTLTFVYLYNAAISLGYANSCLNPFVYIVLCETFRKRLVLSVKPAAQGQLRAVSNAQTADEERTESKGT

[11] = NIH-3T3 fibroblast cytotoxicity, dose response, cytotoxicity control, cell-based, fluorescence, Alamar Blue, secondary assay (AID 2327); format: functional;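 note: NIH-3T3 mouse fibroblasts cultured with fluconazole at 8 µg/mL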
[12] = target: T2, Zinc finger protein mex-5 (Caenorhabditis elegans, UniProt Q9XUB2); assay: potency of MEX-5 RNA-binding blockers – biochemical, C. elegans, fluorescence polarization, dose response (AID 1960)
T2 sequence (Q9XUB2 whole entry): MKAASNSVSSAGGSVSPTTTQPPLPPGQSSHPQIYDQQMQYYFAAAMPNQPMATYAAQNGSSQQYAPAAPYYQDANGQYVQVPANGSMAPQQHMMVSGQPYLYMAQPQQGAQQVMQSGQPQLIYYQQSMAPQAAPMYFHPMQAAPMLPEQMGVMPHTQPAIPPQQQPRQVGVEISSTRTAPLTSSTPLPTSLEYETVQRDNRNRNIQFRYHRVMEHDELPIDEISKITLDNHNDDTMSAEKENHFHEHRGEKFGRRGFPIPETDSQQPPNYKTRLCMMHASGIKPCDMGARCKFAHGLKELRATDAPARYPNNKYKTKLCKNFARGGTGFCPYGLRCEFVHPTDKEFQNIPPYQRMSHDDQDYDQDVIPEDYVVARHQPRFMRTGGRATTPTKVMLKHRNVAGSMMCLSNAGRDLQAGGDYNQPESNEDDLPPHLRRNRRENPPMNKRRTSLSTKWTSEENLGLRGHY

[13] = viability loss in THP-1 monocytes – THP-1 cells, cytotoxicity control for Vif-APOBEC3G degradation inhibitor project, dose response (AID 1117359); format: functional; settings: THP-1
[14] = target: T3, Endoribonuclease toxin MazF (Escherichia coli K-12, UniProt P0AE70); assay: activation of MazEF endoribonuclease cleavage – biochemical, fluorescence, single-stranded RNA substrate, uHTS hits, dose response (AID 588481); format: functional
T3 sequence (P0AE70 whole entry): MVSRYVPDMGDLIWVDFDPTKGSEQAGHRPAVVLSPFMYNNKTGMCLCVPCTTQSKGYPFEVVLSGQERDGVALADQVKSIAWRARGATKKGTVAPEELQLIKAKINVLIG

[15] = target: T4, Corticotropin-releasing factor receptor 2/Corticotropin-releasing factor-binding protein (Homo sapiens, UniProt P24387+Q13324); assay: activators of CRF receptor 2 with binding protein – uHTS hits, confirmation (AID 602473); format: functional; settings: read-out: EC50_Mean
T4 sequence (Q13324 whole entry): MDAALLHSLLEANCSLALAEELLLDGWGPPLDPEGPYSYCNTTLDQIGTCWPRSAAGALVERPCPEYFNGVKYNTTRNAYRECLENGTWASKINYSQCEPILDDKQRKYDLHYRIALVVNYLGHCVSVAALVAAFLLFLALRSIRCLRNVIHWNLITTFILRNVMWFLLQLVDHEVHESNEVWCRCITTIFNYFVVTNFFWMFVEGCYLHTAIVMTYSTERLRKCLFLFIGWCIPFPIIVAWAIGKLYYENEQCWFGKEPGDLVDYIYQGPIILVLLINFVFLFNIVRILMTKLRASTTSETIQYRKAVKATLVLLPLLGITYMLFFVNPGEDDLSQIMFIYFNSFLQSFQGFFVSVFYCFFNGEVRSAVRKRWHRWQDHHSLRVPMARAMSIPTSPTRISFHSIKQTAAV
T4 sequence (P24387 whole entry): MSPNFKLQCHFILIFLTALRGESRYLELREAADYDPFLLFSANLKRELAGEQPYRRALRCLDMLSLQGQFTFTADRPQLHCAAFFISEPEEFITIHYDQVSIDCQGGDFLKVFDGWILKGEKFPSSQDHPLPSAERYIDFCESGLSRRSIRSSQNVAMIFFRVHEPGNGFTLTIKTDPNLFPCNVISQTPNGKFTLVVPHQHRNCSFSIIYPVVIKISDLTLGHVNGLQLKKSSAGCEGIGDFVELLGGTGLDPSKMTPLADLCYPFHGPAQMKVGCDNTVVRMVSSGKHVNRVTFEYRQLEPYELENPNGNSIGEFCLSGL

[16] = target: T5, RNA-binding protein pos-1 (Caenorhabditis elegans, UniProt G5EF15); assay: disruptors of C. elegans POS-1 RNA interaction – biochemical, fluorescence polarization, dose response (AID 1964);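 note: purified POS-1 fused to maltose binding protein made in E. coli; potency of compounds blocking POS-1 binding to fluorescent RNA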
T5 sequence (G5EF15 whole entry): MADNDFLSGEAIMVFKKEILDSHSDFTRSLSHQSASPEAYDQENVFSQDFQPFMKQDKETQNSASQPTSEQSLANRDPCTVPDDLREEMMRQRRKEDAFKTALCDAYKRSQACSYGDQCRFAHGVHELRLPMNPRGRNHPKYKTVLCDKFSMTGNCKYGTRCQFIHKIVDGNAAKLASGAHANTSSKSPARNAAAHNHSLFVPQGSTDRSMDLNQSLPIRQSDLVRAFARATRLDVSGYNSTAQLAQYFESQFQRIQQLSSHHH

[17] = fluconazole-exposed Candida albicans growth modulators – fluorescence, retest, confirmation (AID 2467); format: functional, cell-based
[18] = target: T3, Endoribonuclease toxin MazF; assay: substrate-only fluorescence increase artefacts – biochemical, single-stranded RNase substrate, counter-screen for MazEF activator project, dose response (AID 588502); format: functional

## Cc1c(Cc2ccccc2)c(NCCN(C)C)n2c(nc3ccccc32)c1C#N
[1]
  AC50: 2.37 µM (active)
cells
  EC50: 0.015 µM (active)
[2]
  EC50: < 0.1 µM (active)
[3]
  EC50: 34.1 µM (active)
[4]
  IC50: 3.29 µM (active)

## N#Cc1sc2nc3c(c(-c4ccco4)c2c1N)CCCC3
[5]
  IC50: 68.6 µM (not active)

## CN1C(=O)C(=CNc2ccc3c(c2)CCC3)C(=O)N(C)C1=O
[6]
  IC50: > 100 µM (active)

## Cc1ccc2nc(N(CCCN(C)C)C(=O)CN3C(=O)c4ccccc4C3=O)sc2c1
cells
  EC50: 0.055 µM (active)
[7]
  AC50: 21.7 µM (active)
[2]
  EC50: < 0.1 µM (active)
[3]
  EC50: > 60 µM (not active)

## CC(=O)NC1C(=O)N=C(SCc2ccccc2)NC1=O (stereo not drawn)
[8]
  IC50: > 83.3 µM (inactive)
[9]
  IC50: > 109 µM (inactive)

## CCCc1ccc(OCCNC(=O)CC)cc1
[8]
  IC50: > 83.4 µM (inactive)
[9]
  IC50: > 109 µM (inactive)

## CCC(C)c1ccc(-n2ncc(Cl)c(Oc3ccc(OC)cc3)c2=O)cc1 (stereo not drawn)
[10]
  IC50: 2.2 µM (active)

## Cc1ccc(-n2ncc(Cl)c(Oc3ccc(CO)cc3)c2=O)cc1
[10]
  IC50: > 20 µM (inactive)

## CCN(CC)c1ccc(/N=C/c2ccc(N(CC)CC)cc2O)cc1
[11]
  EC50: 147 µM (inconclusive)
[12]
  EC50: > 300 µM (not active)
[13]
  CC50: > 40 µM (active)
[14]
  EC50: > 99 µM (inactive)
[15]
  EC50: 4.26 µM (active)
[16]
  EC50: > 300 µM (not active)
[17]
  EC50: > 38 µM (not active)
[2]
  EC50: 3.25 µM (active)
[18]
  EC50: > 99 µM (inactive)
[3]
  EC50: > 60 µM (not active)

## CC1(C)CC(=O)C(/C=N/c2ccc3c(c2)OCO3)=C(O)C1
[6]
  IC50: > 100 µM (active)
